Columns and labels:
SkM:NRVM co-cultures = test: Pharmacological intervention for induced reentrant arrhythmias, optical mapping of mixed co-cultures; assay type: cell-based; settings: n=12
Procedure: Human skeletal myoblasts were obtained from Cambrex (Walkersville, Md.) and grown in myoblast basal growth medium (SkBM, Clonetics) containing 10% fetal bovine serum, recombinant human epidermal factor (10 ng/ml), dexamethasone (3 μg/ml), L-glutamine, Gentamicin and Amphotericin-B, at 37° C. and 5% CO2. (Vials obtained from Cambrex contained 70-80% myoblasts, and the remainder were fibroblasts). The cells were seeded at 3,500 cells/cm^2 and maintained at cell densities of 60-70% to prevent myotube formation during the culture process. Cells were transduced with lentivirus on their second passage and frozen at −80° C. or amplified up to 10 population doublings. For co-cultures, myoblasts were dissociated using trypsin, counted and then used.
Cells were re-suspended in M199 culture medium (Life Technologies, Rockville, Md.), supplemented with 10% heat-inactivated fetal bovine serum (Life Technologies), differentially pre-plated in two 45 minute steps, and then counted using a hemocytometer. For control experiments, 10^6 cells were plated on 22 mm plastic coverslips coated with fibronectin (25 μg/ml). On day 2 after cell plating, serum was reduced to 2%.
Myoblasts and NRVMs were co-cultured (isotropic) on 22 mm plastic cover slips (coated with fibronectin, 25 μg/ml) for 9-11 days and then used for optical mapping. In an initial set of experiments, 0.5×10^6 NRVMs were plated over half of the cover slip, with the other half covered by a PDMS stamp coated with fibronectin (50 μg/ml). The PDMS stamp was removed 24 hours later and 0.5×10^6 myoblasts transduced with Lv-GFP were then plated. […] In a second set of experiments, the myoblasts (transduced with LvGFP) and NRVMs were plated at the same time in varying ratios: 1:1, 1:4 and 1:9 to study the electrophysiologic consequences of mixing the two cell types.
(§1) Coverslips were visually inspected under a microscope. Monolayers with obvious gaps in confluency and non-beating cultures were rejected. The coverslips were placed in a custom-designed chamber, stained with 5 μM di-4-ANEPPS (Molecular Probes; Eugene, Oreg.) for 5 min and continuously superfused with warm (36.5° C.) oxygenated Tyrode solution consisting of (in mM) 135 NaCl, 5.4 KCl, 1.8 CaCl2, 1 MgCl2, 0.33 NaH2PO4, 5 HEPES, and 5 Glucose. A unipolar point or area electrode (4 bipolar line electrodes) was used to stimulate the cells in culture. Action potentials were recorded from 253 sites using a modified custom-built contact fluorescence imaging system.^15 The recording chamber was placed directly above a fiber bundle with fibers arranged in a 17 mm-diameter hexagonal array. A light emitting diode (LED) light source with an interference filter (530+/−25 mm) delivered excitation light to the chamber. […]

L-type calcium channel = test: Nitrendipine dose response curve: APD and conduction velocity by optical mapping; assay type: cell-based; settings: nitrendipine 5 μM
Procedure: as §1
Baseline drift was reduced by subtraction of a fitted polynomial curve from the optical signal. […] To compare velocities among different episodes in the same monolayer, conduction velocity was calculated along the same path and averaged over different stimulus responses. […] Data are expressed as Mean +/−SEM unless stated otherwise. Differences between means were assessed using the Student's t test or Fischer's exact test.

| Compound | termination of reentry (SkM:NRVM co-cultures; lidocaine 200 μM superfused, co-cultures) | slowed the reentry rate (SkM:NRVM co-cultures; lidocaine 200 μM superfused, induced reentry in co-cultures) | shortened APD (L-type calcium channel) [%] | slowed the reentrant rhythms (SkM:NRVM co-cultures; nitrendipine 5 μM superfused, before termination) | time to abrupt termination of reentry (SkM:NRVM co-cultures; nitrendipine 5 μM, in all co-cultures) [min] |
| --- | --- | --- | --- | --- | --- |
| CCN(CC)CC(=O)Nc1c(C)cccc1C [lidocaine] | did not terminate it in the majority of co-cultures | 70-80% | – | – | – |
| CCOC(=O)C1=C(C)NC(C)=C(C(=O)OC)C1c1cccc([N+](=O)[O-])c1 (centres unmarked) [nitrendipine] | – | – | 50 | 10-20% | ≤ 5 |

Source: patent US20080260705A1, “Preventing Arrhythmias Associated with Cell Transplantation” (The Johns Hopkins University, priority 2004, published 2008)
